Test system: mixture of bacterial species: Pseudomonas aeruginosa, Pseudomonas fluorescens, Pseudomonas oleovorans, Pseudomonas rubescens, Pseudomonas stutzeri, Alcaligenes …
Assay: Microbiological stress test (preservation stress test) in calcium carbonate slurry
Type: cell-based
Settings: calcium carbonate slurry (solids 70-75%), 3 days 60° C. pre-stress, weekly contamination
Procedure: Microbiological Stress Test The microbiological stress test examines the susceptibility of water-based systems to microbial attack and the efficacy of preservatives. To this end, defined concentrations of the preservatives are incorporated into the water-based systems. To simulate reality-like conditions, depending on the medium to be examined, the sample may be stored at elevated temperatures (for example for 7 days at 40° C., for 3 days at 60° C. or the like) prior to carrying out the actual preservation test, in order to evaluate the preservatives to be tested under conditions which are as realistic as possible. After the preliminary work has been concluded, there is, at weekly intervals, a contamination with microorganisms of a defined type over a test period of at most 6 weeks. 2-3 and 7 days after each contamination it is established by germ number determination, whether there has been a complete kill or at least an inhibition of proliferation of the microorganisms introduced, compared to the non-preserved control samples. On account of the microorganism populations known to predominate in mineral suspensions and dispersions, for the experiment, a mixture of the following bacterial species was used for the test: Pseudomonas aeruginosa Pseudomonas fluorescens Pseudomonas oleovorans Pseudomonas rubescens Pseudomonas stutzeri Alcaligenes faecalis Citrobacter freundii Corynebacterium sp. Very good efficacy is achieved when the preserved samples effect a kill of the microorganisms introduced even after 6 contamination cycles. […] Using a calcium carbonate slurry (solids content 70-75%), a preservation stress test was carried out in accordance with the above scheme. After incorporation of the respective biocide products at the stated concentrations, the samples were exposed to thermal stress at 60° C. for 3 days in order to identify unstable active compound components in the biocide products even at this phase of the experiment by subsequent loss of activity.

O=c1[nH]sc2ccccc12 [benzisothiazolinone, 1,2-benzisothiazolin-3-one]
Preservation state Week 1 (100 ppm): ok
Preservation state Week 2 (100 ppm): spoilt
Preservation state Week 3 (100 ppm): spoilt
Preservation state Week 4 (100 ppm): spoilt
Preservation state Week 5 (100 ppm): spoilt
Preservation state Week 6 (100 ppm): spoilt
Preservation state Week 1 (150 ppm): ok
Preservation state Week 2 (150 ppm): ok
Preservation state Week 3 (150 ppm): spoilt
Preservation state Week 4 (150 ppm): spoilt
Preservation state Week 5 (150 ppm): spoilt
Preservation state Week 6 (150 ppm): spoilt
Preservation state Week 1 (200 ppm): ok
Preservation state Week 2 (200 ppm): ok
Preservation state Week 3 (200 ppm): ok
Preservation state Week 4 (200 ppm): spoilt
Preservation state Week 5 (200 ppm): spoilt
Preservation state Week 6 (200 ppm): spoilt

Source: patent US20080009532A1, “Antimicrobially Finished Solid Preparations” (priority 2005, published 2008)
